Here are results for 37 compounds from patent US11339144B2 (Navitor Pharmaceuticals, Inc., priority 2017, dated 2022).

The target of assay [1] is HA-GST-Rheb (GTP-γ-S loaded) activating mTORC1 (Homo sapiens (Human), UniProt Q15382). As to the kind of experiment: Rheb-dependent in vitro kinase assay (Rheb-IVK; LanthaScreen or Western readout). In kind it is biochemical. The note with it: Rheb-dependent in vitro kinase assay; read-out: IVK IC50.
A further assay deals with Rheb (Homo sapiens (Human), UniProt Q15382). As to the kind of experiment: Affinity Selection Mass Spectrometry (ASMS). In kind it is binding. The note with it: affinity (R3/R0) in Affinity Selection Mass Spectrometry assay. Put shortly: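 Human Rheb (60 μM) with GDP (180 μM) and each compound at 2 μM, protein-plus versus protein-minus, incubated 30 min at room temperature, then washed by 10 kDa ultrafiltration. Retained ligand was released with MeCN and detected by UPLC-Q-TOF MS.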
Chain of Rheb (Q15382 1-169 limits assumed): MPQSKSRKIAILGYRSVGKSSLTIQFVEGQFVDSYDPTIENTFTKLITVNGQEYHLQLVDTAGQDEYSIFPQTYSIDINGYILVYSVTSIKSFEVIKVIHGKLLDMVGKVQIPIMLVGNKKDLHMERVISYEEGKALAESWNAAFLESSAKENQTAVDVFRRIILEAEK

pIC50: −log10 of the molar value. Where only a bound is given, the exact number is not on record here.

Chain of HA-GST-Rheb (GTP-γ-S loaded) activating mTORC1 (Q15382 1-181): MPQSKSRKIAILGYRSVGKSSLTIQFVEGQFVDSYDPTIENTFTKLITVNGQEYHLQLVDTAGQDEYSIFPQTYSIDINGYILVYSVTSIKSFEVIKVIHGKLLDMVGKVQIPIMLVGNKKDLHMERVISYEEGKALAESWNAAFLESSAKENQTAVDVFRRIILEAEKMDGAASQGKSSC

`CN(C)C(=O)c1ccc(Cn2c(C(=O)O)cc3c(C4CC4)cc(Sc4ccc(Cl)c(Cl)c4)cc32)cc1` [I-10, 4-cyclopropyl-6-(3,4-dichlorophenylthio)-1-(4-(dimethylcarbamoyl)benzyl)-1H-indole-2-carboxylic acid]: in assay [1], the pIC50 is > 5.00. Further, the “ASMS (R3/R0)” value at Rheb was “A (an affinity (R3/R0)>100%)”.
On the same counts, the results for `OC1CC(COc2c(Cl)c(Cl)cc3c2nc2n3COC2)CC1O` (centres unmarked) [I-373, 4-((6,7-dichloro-1,3-dihydrobenzo[d]oxazolo[3,4-a]imidazol-5-yloxy)methyl)cyclopentane-1,2-diol] are 4.00 to 5.00 and “C (an affinity (R3/R0)<20%)”.
`O=C(NCCN1CCCC1)c1cc2c(Sc3ccc(Cl)cc3)cc(Cl)cc2[nH]1` [I-148, 6-chloro-4-(4-chlorophenylthio)-N-(2-(pyrrolidin-1-yl)ethyl)-1H-indole-2-carboxamide]: the pIC50 in assay [1] is 4.00 to 5.00. The “ASMS (R3/R0)” value on Rheb is “B (an affinity (R3/R0) between 100% and 20%)”.
For the compound `CN1CC(NC(=O)c2cc3c(Sc4ccc(Cl)cc4)cc(Cl)cc3[nH]2)C1` [I-71, 6-chloro-4-(4-chlorophenylthio)-N-(1-methylazetidin-3-yl)-1H-indole-2-carboxamide], the pIC50 in assay [1] is > 5.00. In addition, the “ASMS (R3/R0)” value at Rheb was “B (an affinity (R3/R0) between 100% and 20%)”.
Take `O=C(O)c1cc2c(Sc3cccc4cccnc34)cc(Cl)cc2[nH]1` [I-87, 6-chloro-4-(quinolin-8-ylthio)-1H-indole-2-carboxylic acid]: in assay [1], the pIC50 is 4.00 to 5.00. Besides, the “ASMS (R3/R0)” value at Rheb is “B (an affinity (R3/R0) between 100% and 20%)”.
As to `Nc1ccc(-c2nc3cc(Cl)c(Cl)cc3[nH]2)cc1` [I-360], in assay [1], the pIC50 was < 4.00. Besides, the “ASMS (R3/R0)” value at Rheb is “B (an affinity (R3/R0) between 100% and 20%)”.
Consider `OCc1cc2c(Br)cc(OCCCc3ccccc3)cc2[nH]1` [I-235, (4-Bromo-6-(3-phenylpropoxy)-1H-indol-2-yl)methanol], for which, in assay [1], the pIC50 is 4.00 to 5.00. Besides, the “ASMS (R3/R0)” value on Rheb was “B (an affinity (R3/R0) between 100% and 20%)”.
With `NCCn1c(CO)cc2c(Oc3ccccc3)cc(Cl)cc21` [I-168], the pIC50 in assay [1] is < 4.00. The “ASMS (R3/R0)” value on Rheb is recorded as “C (an affinity (R3/R0)<20%)”.
For `O=C(O)c1cc2c(Sc3ccc(Cl)cc3Cl)cc(Cl)cc2n1Cc1ccc(-c2ccncc2)cc1` [I-70, 6-chloro-4-(2,4-dichlorophenylthio)-1-(4-(pyridin-4-yl)benzyl)-1H-indole-2-carboxylic acid], the pIC50 in assay [1] was > 5.00. Further, the “ASMS (R3/R0)” value at Rheb is “A (an affinity (R3/R0)>100%)”.
`CC(C)(C)OC(=O)N1CCN(c2cc(-c3nc4cc(Cl)c(Cl)cc4[nH]3)ccn2)CC1` [I-347]: the pIC50 in assay [1] is < 4.00. Also, the “ASMS (R3/R0)” value at Rheb was “B (an affinity (R3/R0) between 100% and 20%)”.
`CN(C)C(=O)c1ccc(Cn2c(C(=O)O)cc3c(SCCc4ccc(Cl)c(Cl)c4)cc(SCCc4ccc(Cl)c(Cl)c4)cc32)cc1` [I-16, 4,6-bis(3,4-dichlorophenethylthio)-1-(4-(dimethylcarbamoyl)benzyl)-1H-indole-2-carboxylic acid]: the pIC50 in assay [1] was > 5.00. Also, the “ASMS (R3/R0)” value at Rheb is “B (an affinity (R3/R0) between 100% and 20%)”.
With `CS(=O)(=O)CCNC(=O)c1cc2c(Sc3ccc(Cl)cc3)cc(Cl)cc2[nH]1` [I-137], the pIC50 in assay [1] was < 4.00. Besides, the “ASMS (R3/R0)” value on Rheb is given as “A (an affinity (R3/R0)>100%)”.
With `CN1CCC[C@@H]1CNC(=O)c1ccc(-c2nc3cc(Cl)c(Cl)cc3[nH]2)cc1` [I-341], the negative logarithm of the IC50 (pIC50) in assay [1] was < 4.00. The “ASMS (R3/R0)” value at Rheb is “B (an affinity (R3/R0) between 100% and 20%)”.
Regarding `Cc1ccc(Oc2cc(Cl)cc3[nH]c(CO)cc23)cc1C(F)(F)F` [I-82, (6-Chloro-4-(4-methyl-3-(trifluoromethyl)phenoxy)-1H-indol-2-yl)methanol], the negative logarithm of the IC50 (pIC50) in assay [1] is > 5.00. Also, at Rheb, the “ASMS (R3/R0)” value is “B (an affinity (R3/R0) between 100% and 20%)”.
`O=C(NC1CCN(Cc2ccccc2)CC1)c1cc2c(Sc3ccc(Cl)cc3Cl)cc(Cl)cc2[nH]1` [I-117]: the pIC50 in assay [1] is < 5.52. In addition, the “ASMS (R3/R0)” value at Rheb is listed as “C (an affinity (R3/R0)<20%)”.
Consider `OCc1nc2cc(OCc3ccc(Cl)cc3)c(Cl)c(Cl)c2[nH]1` [I-375, (6,7-dichloro-5-(4-chlorobenzyloxy)-1H-benzo[d]imidazol-2-yl)methanol], for which the pIC50 in assay [1] was > 5.00. Besides, the “ASMS (R3/R0)” value at Rheb is “A (an affinity (R3/R0)>100%)”.
On the same counts, the results for `O=C(O)c1nc2cc(OCc3ccc(Cl)cc3)c(Cl)cc2[nH]1` [I-343, 6-chloro-5-(4-chlorobenzyloxy)-1H-benzo[d]imidazole-2-carboxylic acid] are 4.00 to 5.00 and “A (an affinity (R3/R0)>100%)”.
Regarding `CN1CCC(NC(=O)c2cc3c(Sc4ccc(Cl)cc4Cl)cc(Cl)cc3[nH]2)CC1` [I-114], the pIC50 in assay [1] is < 4.00. Moreover, at Rheb, the “ASMS (R3/R0)” value is “B (an affinity (R3/R0) between 100% and 20%)”.
For `O=C(O)c1cc2c(Sc3ccc(Oc4ccc(Cl)cc4)cc3)cc(Cl)cc2[nH]1` [I-84, 6-chloro-4-(4-(4-chlorophenoxy)phenylthio)-1H-indole-2-carboxylic acid], the pIC50 in assay [1] was > 5.00. In addition, at Rheb, the “ASMS (R3/R0)” value is “B (an affinity (R3/R0) between 100% and 20%)”.
Turning to `Clc1cc2nc(-c3ccnc(-c4ccccc4)c3)[nH]c2cc1Cl` [I-368], in assay [1], the pIC50 is < 4.00. The “ASMS (R3/R0)” value at Rheb is “B (an affinity (R3/R0) between 100% and 20%)”.
In the case of `O=C(O)c1cc2c(Cl)cc(Oc3ccccc3)cc2n1Cc1c[nH]cn1` [I-173, 1-((1H-imidazol-4-yl)methyl)-4-chloro-6-phenoxy-1H-indole-2-carboxylic acid], the pIC50 in assay [1] is 4.00 to 5.00. Further, on Rheb, the “ASMS (R3/R0)” value is listed as “C (an affinity (R3/R0)<20%)”.
On to `CC(C)(C)OC(=O)N1CCN(C(=O)c2ccc(Cn3c(C(=O)O)cc4c(Br)cc(Sc5ccc(Cl)c(Cl)c5)cc43)cc2)CC1` [I-44], for which, in assay [1], the pIC50 is < 4.00. At Rheb, the “ASMS (R3/R0)” value was “B (an affinity (R3/R0) between 100% and 20%)”.
As to `CC(C)(O)CNC(=O)c1ccc(Cn2c(C(=O)O)cc3c(Br)cc(Oc4ccccc4)cc32)cc1` [I-55, 4-bromo-1-(4-(2-hydroxy-2-methylpropylcarbamoyl)benzyl)-6-phenoxy-1H-indole-2-carboxylic acid], the pIC50 in assay [1] was 4.00 to 5.00. The “ASMS (R3/R0)” value at Rheb was “C (an affinity (R3/R0)<20%)”.
As to `CN(C)C(=O)c1ccc(Cn2c(C(=O)O)cc3c(Br)cc(Sc4ccc5ccccc5c4)cc32)cc1` [I-28, 4-bromo-1-(4-(dimethylcarbamoyl)benzyl)-6-(naphthalen-2-ylthio)-1H-indole-2-carboxylic acid], the pIC50 in assay [1] was > 5.00. Moreover, at Rheb, the “ASMS (R3/R0)” value was “B (an affinity (R3/R0) between 100% and 20%)”.
`CN(C)C(=O)c1ccc(Cn2c(C(=O)O)cc3c(Br)nc(Sc4ccc(Cl)c(Cl)c4)cc32)cc1` [I-3, 4-bromo-6-(3,4-dichlorophenylthio)-1-(4-(dimethylcarbamoyl)benzyl)-1H-pyrrolo[3,2-c]pyridine-2-carboxylic acid]: in assay [1], the pIC50 is 4.00 to 5.00. Moreover, the “ASMS (R3/R0)” value at Rheb was “B (an affinity (R3/R0) between 100% and 20%)”.
For `O=C(O)c1cc2c(Br)cc(Oc3ccccc3)cc2n1Cc1ccc(C(=O)N2CCNCC2)cc1` [I-61], the negative logarithm of the IC50 (pIC50) in assay [1] is < 4.00. The “ASMS (R3/R0)” value at Rheb was “C (an affinity (R3/R0)<20%)”.
On the same counts, the results for `O=[N+]([O-])c1ccc(COc2cc3nc(CO)[nH]c3c(Cl)c2Cl)cc1` [I-329, (6,7-dichloro-5-(4-nitrobenzyloxy)-1H-benzo[d]imidazol-2-yl)methanol] are 4.00 to 5.00 and “A (an affinity (R3/R0)>100%)”.
For `OCc1cc2c(Oc3ccccc3)cc(Cl)cc2[nH]1` [I-291, (6-Chloro-4-phenoxy-1H-indol-2-yl)methanol], in that order: 4.00 to 5.00 and “C (an affinity (R3/R0)<20%)”.
For `OCc1nc2c(OCc3ccccc3)cc(Cl)cc2[nH]1` [I-493], in that order: < 4.00 and “C (an affinity (R3/R0)<20%)”.
As to `Cc1c(-c2ccc(Cn3c(C(=O)O)cc4c(Sc5ccc(Cl)cc5Cl)cc(Cl)cc43)cc2)cnn1C` [I-77, 6-chloro-4-(2,4-dichlorophenylthio)-1-(4-(1,5-dimethyl-1H-pyrazol-4-yl)benzyl)-1H-indole-2-carboxylic acid], in assay [1], the pIC50 was > 5.00. At Rheb, the “ASMS (R3/R0)” value was “B (an affinity (R3/R0) between 100% and 20%)”.
As to `CN1CCC(CCNC(=O)c2cc3c(Br)cc(Sc4ccc(Cl)c(Cl)c4)cc3[nH]2)CC1` [I-97], the pIC50 in assay [1] was < 4.00. At Rheb, the “ASMS (R3/R0)” value was “B (an affinity (R3/R0) between 100% and 20%)”.
`N#Cc1ccc(Cn2ccc3c(Sc4ccc(Cl)cc4Cl)cccc32)cc1` [I-160]: in assay [1], the pIC50 was < 4.00. The “ASMS (R3/R0)” value at Rheb is on record as “C (an affinity (R3/R0)<20%)”.
On the same counts, the results for `O=C(Nc1ccc(-c2cnco2)cc1)c1cc2c(Sc3ccc(Cl)cc3)cc(Cl)cc2[nH]1` [I-128, 6-chloro-4-(4-chlorophenylthio)-N-(4-(oxazol-5-yl)phenyl)-1H-indole-2-carboxamide] are > 5.00 and “A (an affinity (R3/R0)>100%)”.
On the same counts, the results for `NC(=O)CCc1cc2c(Oc3ccccc3)c(Cl)ccc2[nH]1` [I-247, 3-(5-chloro-4-phenoxy-1H-indol-2-yl)propanamide] are 4.00 to 5.00 and “C (an affinity (R3/R0)<20%)”.
For `CC(C)(C)OC(=O)c1ccc(Cn2ccc3c(Br)cc(Oc4ccccc4)cc32)cc1` [I-163], in that order: < 4.00 and “C (an affinity (R3/R0)<20%)”.
Take `CN(C)C(=O)c1ccc(Cn2c(C(=O)O)cc3cc(-c4ccccc4)c(Sc4ccc(Cl)c(Cl)c4)cc32)cc1` [I-2]: in assay [1], the pIC50 is > 5.00. Moreover, the “ASMS (R3/R0)” value on Rheb is “B (an affinity (R3/R0) between 100% and 20%)”.
Take `CN(C)c1cc(-c2nc3cc(Cl)c(Cl)cc3[nH]2)ccn1` [I-351]: the pIC50 in assay [1] was < 4.00. Also, at Rheb, the “ASMS (R3/R0)” value is on record as “A (an affinity (R3/R0)>100%)”.

In general, pIC50 refers to −log10 of the IC50, conventionally taken in molar units.
